In patent EP4212151B1, “STILBENE, FLAVONOL OR CURCUMIN COMPOUNDS FOR USE IN THE TREATMENT OF AGE-RELATED MACULAR DEGENERATION (AMD; ARMD)” (Knepper, Paul A., priority 2022, dated 2023):
Where “and” joins values, the source holds several entries; their conditions need not be identical. Equal entries are not always repeated. Where two headings read alike, the source gives them in different places.

How the values were obtained:
[1] = tested on: superactivated platelets (SAPs); assay: In-vitro flow cytometry platelet assay: superactivated platelets (SAP% of all platelets) after thrombin and convulxin; combination index by CompuSyn; type: cell-based; settings: Homo sapiens; for IC50: individually (single agent), read-out: IC50 for the reduction of SAPs; for inhibition at 0.01 µM: single agent 0.01 µM; for inhibition at 0.01 µM / inhibition at 0.1 µM / inhibition at 1 µM / inhibition at 5 µM / inhibition at 10 µM: read-out: % change; for inhibition at 0.1 µM: single agent 0.1 µM; for inhibition at 1 µM: single agent 1 µM; for inhibition at 5 µM: single agent 5 µM; for inhibition at 10 µM: single agent 10 µM
Text: Briefly, platelet-rich plasma (PRP) from patients with age-related macular degeneration (n = 9) are isolated from whole blood and challenged using dual agonists thrombin and convulxin (collagen substitute) to stimulate superactivated platelets (SAPs). SAPs are defined as positive for surface fibrinogen and negative for activated integrin αIIbβ3, whereas activated platelets are defined as negative for surface fibrinogen and positive for activated integrin αIIbβ3. Surface fibrinogen is detected by pre-treating platelets with biotinylated-fibrinogen (5 µg/mL) followed by staining with any common fluorophore conjugated to streptavidin. The streptavidin-fluorophore complex binds to the biotin-fibrinogen complex present on SAPs but not activated platelets due to the differing composition of charged surface proteins. Activated integrin αIIbβ3 - characteristic of activated platelets - is detected using the PAC-1 antibody conjugated to any compatible fluorophore. […] The effect of RQC on SAPs is determined by pre-treating diluted PRP samples with combinations of R, Q, and/or C for 5 minutes at 37°C followed by challenge with thrombin and convulxin for 5 minutes at 37°C. The samples are then stained with the fluorophore-conjugates and fixed in 3% formalin before analysis using a flow cytometer. SAP percentage is calculated as a percentage of all platelets. The effect size of RQC is determined by the change ion SAP percentage before and after treatment with RQC and is used as input to calculate drug synergy using the CompuSyn software developed by Chou, et al. Drug synergy, additivism, and antagonism are defined as a combination index (CI) score less than, equal to, or greater than 1, respectively. The level of drug synergy can be further stratified by quantile, tertile, or quartile in cases where numerous synergistic doses are compared.
The average combination index values of low, medium, and high doses of RQC for the inhibition of SAPs in AMD subjects was determined. The Combination Index (CI) theorem derived by Chou-Talalay [Chou, 2010] was calculated for each combination drug treatment of R, Q, and C. The CI is useful in quantifying levels of synergism and antagonism. The theorem is based on the median-effect equation to provide a common link between a single entity and multiple entities. A CI value < 1 indicates synergism, a CI equal to 1 indicates additivity, and a CI > 1 indicates antagonism. RQC was very effective in low, medium, and high doses.
R, Q, and C at three different dose levels each were tested in all possible combinations, resulting in 27 possible double and 27 possible triple combinations within each subject. The doses tested were R (1, 5, and 10 µM), Q (1, 5, and 10 µM), and C (0.01, 0.1, and 1 µM) and the effect was based on the inhibition of SAPs. To obtain the mean number of synergistic doses in each cohort, the average CI score for each dose combination was calculated within each cohort, producing a set of 27 double combination CI scores and 27 triple combination CI scores per cohort. Out of each set of 27 dose combinations, the number of CI scores under 0.8 (highly synergistic) was counted and reported here. For example, in control subjects 5 out of 27 possible double combinations were synergistic while 25 out of 27 possible triple combinations were synergistic based on the mean CI for each dose in the cohort.

[2] = cited from earlier work; for Half-life: human, in vivo; for Bioavailability: oral
[3] = cited from earlier work; for maximum dose (highest dose evaluated in a repeated-dose clinical trial and found safe and tolerable): human, in vivo; for dose found well tolerated, low or no toxicity: clinical trials, doses as high as
Dry AMD Subjects [4] = assay: Drusen volume by OCT (manual segmentation, ImageJ) in dry AMD subjects, oral treatment for 18 months; type: in vivo, human; settings: oral C 2660 mg/day or RQC 200/240/2660 mg/day; for Drusen Volume % Change: 18 months vs baseline; for Drusen Volume, 18 Months: after 18 months
Text: As stated hereinabove, dry AMD is a common disease characterized by retinal pathology. A typical finding of dry AMD is the presence of drusen and/or geographic atrophy. TABLE 1 below depicts drusen volume at baseline and after 18 months according to drusen size in all participants (C or RQC). […] To compare the changes in drusen volume found in this study in subjects taking oral curcumin against what would be expected over the natural course of the disease, optical coherence tomography (OCT) scans were evaluated. OCT is a new retinal imaging technology which is useful to analyze drusen volume and geographic atrophy. Each subject was scanned 6 months before treatment. This allowed for the examination of the natural history of a subject's drusen progression compared to progression with treatment. Standard deviation (SD) is expressed in mm^3. Statistical significance was determined by Wilcoxon Rank Sum test. Drusen volume was measured by manual segmentation using ImageJ software. Drusen size was determined by the widest width of the drusen and expressed in µm. […]

Dry AMD Subjects [5] = assay: Geographic atrophy area and growth rate in dry AMD subjects, Phase 1 study, 12 months; type: in vivo, human
Experimental: The effect of RQC and curcumin on geographic atrophy growth was evaluated in a Phase 1 study (TABLE 5, below) TABLE 5.
The expected untreated GA growth rate reported in the literature is 1.20 mm^2/year (or 0.18 mm/year adjusted for baseline lesion area). […] The decrease in GA growth rate was highly significant (p = 0.0004) compared with untreated samples [Yehoshua, et al., 2011] and remained highly significant when adjusted for differences in baseline lesion area (p = 0.0001). […]

[6] = drusen ≥ 250 µm, listed as curcumin

Compound: COc1cc(/C=C/C(=O)CC(=O)/C=C/c2ccc(O)c(OC)c2)ccc1O [Curcumin, (1E,6E)-1,7-bis(4-Hydroxy-3-methoxyphenyl)-1,6-heptadiene-3,5-dione]
- IC50 [1]: 3.6 µM
- inhibition at 0.01 µM ([1]; AMD (GA) subject): 11.5%
- inhibition at 0.01 µM ([1]; control subject): 24.1%
- inhibition at 0.1 µM ([1]; AMD (GA) subject): 18.4%
- inhibition at 0.1 µM ([1]; control subject): 36.8%
- inhibition at 1 µM ([1]; AMD (GA) subject): 37%
- inhibition at 1 µM ([1]; control subject): 33.7%
- Half-life [2]: 5 to 6 h
- Bioavailability [2]: 0.01-0.1%
- Cmax ([2]; read-out: maximum plasma concentration, two capsules (1000 mg each)): 600 to 1000 nM
- maximum dose (highest dose evaluated in a repeated-dose clinical trial and found safe and tolerable) [3]: 12000 mg/day
- dose safe and well tolerated ([3]; review of clinical trials, doses up to, only minimal, mostly gastrointestinal side effects): 8 to 12 g/day
- Drusen Volume % Change (Dry AMD Subjects [4]; All drusen): -13.0%
- Drusen Volume, 18 Months (Dry AMD Subjects [4]; All drusen): 8.70 mm^3
- Drusen Volume, 18 Months (Dry AMD Subjects [4]; All drusen, listed as curcumin): 8.7 (± 1.6) mm^3
- Drusen Volume, Baseline (Dry AMD Subjects [4]; All drusen): 10.1 mm^3
- Drusen Volume, Baseline (Dry AMD Subjects [4]; All drusen, listed as curcumin): 10.1 (± 1.60) mm^3
- Drusen Volume % Change (Dry AMD Subjects [4]; drusen 63-124 µm): 0.0%
- Drusen Volume, 18 Months (Dry AMD Subjects [4]; drusen 63-124 µm): 0.08 mm^3
- Drusen Volume, Baseline (Dry AMD Subjects [4]; drusen 63-124 µm): 0.08 mm^3
- Drusen Volume % Change (Dry AMD Subjects [4]; drusen 125-249 µm): -1.6%
- Drusen Volume, 18 Months (Dry AMD Subjects [4]; drusen 125-249 µm): 3.70 mm^3
- Drusen Volume, Baseline (Dry AMD Subjects [4]; drusen 125-249 µm): 3.80 mm^3
- Drusen Volume % Change (Dry AMD Subjects [4]; drusen ≥ 250 µm): -20.0%
- Drusen Volume % Change (Dry AMD Subjects [4]; [6]): -30.0% and -20.0%
- Drusen Volume, 18 Months (Dry AMD Subjects [4]; drusen ≥ 250 µm): 6.00 mm^3
- Drusen Volume, 18 Months (Dry AMD Subjects [4]; [6]): 6.00 (± 1.30) mm^3
- Drusen Volume, Baseline (Dry AMD Subjects [4]; drusen ≥ 250 µm): 7.50 mm^3
- Drusen Volume, Baseline (Dry AMD Subjects [4]; [6]): 0.75 (± 1.30) mm^3
- Growth Rate (mm^2/y) (Dry AMD Subjects [5]; GA, mean of arm, 12 months of treatment): 0.68 ± 0.79 mm^2/y
- Growth Rate (mm^2/y) (Dry AMD Subjects [5]; GA, mean of arm, 12 months of treatment, listed as curcumin): 0.68 mm^2/y
- Baseline Area (mm^2) (Dry AMD Subjects [5]; GA, mean of arm, baseline): 1.08 ± 1.10 mm^2
- Growth Rate (mm/y) (Dry AMD Subjects [5]; GA, mean of arm, square root transformed (adjusted for baseline lesion area), 12 months): 0.21 ± 0.25 mm/y
- Growth Rate (mm/y) (Dry AMD Subjects [5]; GA, mean of arm, square root transformed (adjusted for baseline lesion area), 12 months, listed as curcumin): 0.21 mm/y
- Area (mm^2), Baseline (Dry AMD Subjects [5]; geographic atrophy, individual eyes (subject c0, eye c2, GA category c7), baseline, listed as C): 1.794 mm^2 and 2.254 mm^2 and 0.147 mm^2 and 0.134 mm^2
- Growth Rate (mm^2/y) (Dry AMD Subjects [5]; geographic atrophy, individual eyes, 12 months, listed as C): 1.462 mm^2/y and 1.258 mm^2/y and -0.037 mm^2/y and 0.037 mm^2/y
- Area (mm^2), 12 mo (Dry AMD Subjects [5]; geographic atrophy, individual eyes, after 12 months of treatment, listed as C): 3.256 mm^2 and 3.512 mm^2 and 0.110 mm^2 and 0.171 mm^2
- Growth Rate (mm/y) (Dry AMD Subjects [5]; geographic atrophy, individual eyes, square root transformed, 12 months, listed as C): 0.373 mm/y and 0.465 mm/y and -0.046 mm/y and 0.055 mm/y
- Growth Rate (mm^2/y) (Dry AMD Subjects [5]; nascent GA (nGA), mean of arm, 12 months of treatment): 0.00 ± 0.05 mm^2/y
- Growth Rate (mm^2/y) (Dry AMD Subjects [5]; nascent GA (nGA), mean of arm, 12 months of treatment, listed as curcumin): 0.005 mm^2/y
- Baseline Area (mm^2) (Dry AMD Subjects [5]; nascent GA (nGA), mean of arm, baseline): 0.14 ± 0.01 mm^2
- Growth Rate (mm/y) (Dry AMD Subjects [5]; nascent GA (nGA), mean of arm, square root transformed (adjusted), 12 months): 0.01 ± 0.07 mm/y
- Growth Rate (mm/y) (Dry AMD Subjects [5]; nascent GA (nGA), mean of arm, square root transformed (adjusted), 12 months, listed as curcumin): 0.01 mm/y

Compound: O=c1c(O)c(-c2ccc(O)c(O)c2)oc2cc(O)cc(O)c12 [Quercetin, 2-(3,4-dihydroxyphenyl)-3,5,7-trihydroxychromen-4-one;dihydrate]
- IC50 [1]: 31 µM
- inhibition at 1 µM ([1]; AMD (GA) subject): 6.7%
- inhibition at 1 µM ([1]; control subject): 36.9%
- inhibition at 5 µM ([1]; AMD (GA) subject): 43.9%
- inhibition at 5 µM ([1]; control subject): 38.2%
- inhibition at 10 µM ([1]; AMD (GA) subject): 27.3%
- inhibition at 10 µM ([1]; control subject): 24.7%
- dose found well tolerated, low or no toxicity [3]: ≤ 5 g per day
- maximum dose (highest dose evaluated in a repeated-dose clinical trial and found safe and tolerable) [3]: 5000 mg/day

Compound: Oc1ccc(/C=C/c2cc(O)cc(O)c2)cc1 [Resveratrol, 5-[(1E)2-(4-hydroxyphenyl)ethenyl]-1,3-benzenediol]
- IC50 [1]: 36 µM
- inhibition at 1 µM ([1]; AMD (GA) subject): 8.6%
- inhibition at 1 µM ([1]; control subject): 19.6%
- inhibition at 5 µM ([1]; AMD (GA) subject): 17.1%
- inhibition at 5 µM ([1]; control subject): 24.6%
- inhibition at 10 µM ([1]; AMD (GA) subject): 18.6%
- inhibition at 10 µM ([1]; control subject): 30.5%
- Half-life [2]: 2 to 5 h
- Bioavailability [2]: 0.1-0.4%
- dose found well tolerated, low or no toxicity [3]: ≤ 5 g per day
- maximum dose (highest dose evaluated in a repeated-dose clinical trial and found safe and tolerable) [3]: 5000 mg/day
